These results are taken from patent US10358469B2, “Methods and pharmaceutical compositions for the treatment of cancer” (INSERM (INSTITUT NATIONAL DE LA SANTÉ ET DE LA RECHERCHE …, priority 2014, dated 2019).

The test system of data set [1] is human triple-negative breast cancer xenograft PDX01. The data set is described as follows: Triple-negative breast cancer patient-derived xenograft PDX01 in nude mice. It is filed as in vivo. Conditions: 2.4 mg/kg i.p., 7 daily injections, FIG. 8B. As for the experimental part: Breast cancer fragments were obtained from patients at the time of surgery, with informed written patient consent. After imaging-guided human tumor biopsies had been performed, fragments of 30 to 60 mm^3 were subcutaneously grafted in 6-week-old NMRI-nude mice (Centre-Elevage-Janvier, France), under xylasin (10 mg/kg)/ketamin (100 mg/kg) anesthesia. Mice were maintained in specific pathogen-free animal housing (Institut Universitaire d'Hematologie) and received estrogen (17 mg/mL) diluted in drinking water. Xenografts were characterized and subsequently subcutaneously transplanted from mouse to mouse. […] Two human triple-negative breast cancer (HBC) xenografts models were used in our experiments (PDX01 and PDX02). […] Following transplantation (n=6 per model) tumor growth was assessed by measuring tumor size in two dimension using a Vernier caliper. Tumor volume was calculated using the formula [3.14×long axis×short axis×short axis]/6 (Kjonniksen et al., 1989). […] Mice were weighted and the tumor size was measured by a caliper and recorded daily. Fourteen days after beginning of the treatment mice were sacrificed. The tumors, kidney, lungs, heart, liver, pancreas and spleen were taken and fixed. Paraffin-embedded sections were prepared and stained with hematoxylin and eosin for histological analysis.
(A xenograft is tissue or cells of one species grown in another, often human tumour cells in immunodeficient mice.)

Data set [2] deals with D3H2LN cells. The data set is described as follows: Matrigel invasion assay, D3H2LN cells. Format: cell-based. Conditions: 2 μM, toward 10% FBS, 24 h, FIG. 7B. As for the experimental part:
FIG. 7: Antp-AAC-11-LZ (363-399) peptide inhibits cell migration and invasion. (A) D3H2LN cells were added to the upper well of modified Boyden chamber (transwell) plates with a vehicle or with either 2 μM of the Antp-AAC-11-LZ (363-399) peptide or the Antp-only peptide and subjected to a transwell migration assay as described under Materials and methods. The cells were allowed to migrate toward 10% FBS for 12 […]h. Triplicate wells were used for each of three independent experiments. The results are expressed relative to the migration of the untreated cells (=100%). Column: Mean of three experiments. Bar: s.e. P-value was determined by Student's t-test (*P<0.01). (B) D3H2LN cells were seeded in a Matrigel-coated Boyden chamber with a vehicle or with either 2 μM of the Antp-AAC-11-LZ (363-399) peptide or the Antp-only peptide and subjected to a transwell migration assay as described under Materials and methods. The cells were allowed to migrate toward 10% FBS for 24 […]h. Triplicate wells were used for each of three independent experiments. The results are expressed relative to the migration of the untreated cells (=100%). Column: Mean of three experiments. Bar: s.e. P-value was determined by Student's t-test (*P<0.01) […]

Data set [3] concerns normal cells (HaCat, NCTC and human primary fibroblasts). The data set is described as follows: Cell viability (MTT) of normal cells. It is filed as cell-based. The conditions noted are these: increasing concentrations, 24 hours, FIG. 1B.

For the substance “Ac-RQIKIWFKKQNRRMKWKKAKLNAEKLKDFKIRLQYFARGLQVYIRQLRLALQGKT-NH2 [Antp-AAC-11-LZ (363-399)]”, the “tumor size versus vehicle” value in data set [1] was “significantly smaller tumors”. The cell invasion entry in data set [2] was “prevented invasion”. The “toxicity in normal cells” value in data set [3] is listed as “much reduced toxicity”.
